# Experimental data reported in article PMC6130489, “Caffeic acid methyl and ethyl esters exert potential antidiabetic effects on glucose and lipid metabolism in cultured murine insulin-sensitive cells through mechanisms implicating activation of AMPK” (Pharmaceutical Biology, 2017).
# Where “and” joins values, the source holds several entries; their conditions need not be identical. Equal entries are not always repeated.
# Tests used:
# C2C12 cells = test system: C2C12 cells; design: method as in Eid et al. [2010]; conditions: cultured C2C12 cells; ref Eid et al. [2010]; cited from earlier work
# AMPK = test: Western immunoblot phospho-AMPK in 3T3-L1 adipocytes; type: cell-based, mouse; conditions: 100 μM (Figure 4 legend), phospho-AMPK/pan-AMPK
# Protocol: (§1) Insulin (100 nM) or aminoimidazole carboxamide ribonucleotide (AICAR; 1 mM) were added to some vehicle-treated wells 30 min prior to the end of the treatment and served as the positives controls. Protein content was assayed by the bicinchoninic acid method (Thermo Scientific Pierce Protein Research, Rockford, IL) standardized to bovine serum albumin. Western immunoblotting was performed as described elsewhere (Eid et al. [2010]). Membranes were incubated overnight with phospho-AMPK, phospho-Akt, GLUT4, GLUT1 and β-actin antibodies (1:1000 dilution, Cell Signalling Technology, Danvers, MA), or with PPAR-γ, SREBP-1 (1:200, Santa Cruze Biotechnology, Santa Cruz, CA), followed by incubation with HRP-coupled secondary antibody (1:10,000) for 1 h. Immunoreactive bands were visualized by enhanced chemiluminescence and quantified by the Scion Image program (Scion Corporation, Frederick, MD). Experiments were repeated on 3 different passages of cells, each passage containing all conditions in parallel.
# (§2) Figure 4. CAME and CAEE inhibit C/EBP-β and PPAR-γ protein expression through mechanisms implicating AMPK pathway. Shown are representative blots of 3T3-adipocytes treated with the maximum nontoxic concentration (100 μM) of either CAME or CAEE. […] Data are expressed as C/EBP-β/β-actin (D), PPAR-γ/β-actin (E), phospho-Akt/pan-Akt (F) and phospho-AMPK/pan-AMPK (G). […]
# PPAR-γ = test: Western immunoblot PPAR-γ in 3T3-L1 adipocytes; type: cell-based, mouse; conditions: 100 μM (Figure 4 legend)
# Protocol: as §1, §2
# GLUT1 = test: Western immunoblot GLUT1 protein content in L6 myotubes; type: cell-based, rat; conditions: 50 μM, 18 h
# Protocol: L6 cells myotubes, H4IIE cells and 3T3-L1 adipocytes were treated with either CAME, CAEE (50 μM each) or vehicle (DMSO) for 18 h. Insulin (100 nM) or aminoimidazole carboxamide ribonucleotide (AICAR; 1 mM) were added to some vehicle-treated wells 30 min prior to the end of the treatment and served as the positives controls. Protein content was assayed by the bicinchoninic acid method (Thermo Scientific Pierce Protein Research, Rockford, IL) standardized to bovine serum albumin. Western immunoblotting was performed as described elsewhere (Eid et al. [2010]). […] Immunoreactive bands were visualized by enhanced chemiluminescence and quantified by the Scion Image program (Scion Corporation, Frederick, MD). […]
# Figure 1. […] Cells were treated as previously described, cell surface GLUT4myc was detected by an enzyme-linked colorimetric assay. […] Results represent the means ± SEM of three independent experiments, and 3-4 cells were analyzed for each condition per experiment. *Indicates a significant (p ≤ 0.05) difference, **(p < 0.01) from the vehicle control group as assessed by ANOVA. […] Data are expressed as (D) phospho-AMPK/β-actin, (E) GLUT4/β-actin and (F) GLUT1/β-actin and are given as mean ± SEM from 3 experiments. *p < 0.05 indicates a significant difference, **(p < 0.01) from the vehicle control group.
# Akt = test: Western immunoblot phospho-Akt in 3T3-L1 adipocytes; type: cell-based, mouse; conditions: 100 μM (Figure 4 legend)
# Protocol: as §1, §2
# C/EBP-β = test: Western immunoblot C/EBP-β in 3T3-L1 adipocytes; type: cell-based, mouse; conditions: 100 μM (Figure 4 legend)
# Protocol: as §1, §2
# L6 GLUT4myc myotubes = test: 3H-Deoxyglucose uptake assay; type: cell-based, rat; conditions: 50 μM, 18 h; for 2-deoxyglucose uptake rate: basal (DMSO) 10.1 ± 0.5
# Protocol: Measurement of glucose uptake was performed as previously described (Eid et al. [2010]) using [^3H]-2-deoxyglucose (TRK-383, Amersham Biosciences, Buckinghamshire, UK). Nonspecific uptake was measured in the presence of cytochalasin B (10 μM) and was subtracted from all values.
# (§3) Figure 1. (A) CAME and CAEE increase ^3H-deoxyglucose uptake in L6 GLUT4myc myotubes. Cells were treated with 50 μM of either CAME, CAEE, or with vehicle (0.1% DMSO) for 18 h. 100 nM insulin served as the positive control and was applied for the last 15 min of the treatment in vehicle-treated cells. Glucose uptake was performed as described in Materials and Methods section. (B) CAME and CAEE stimulate GLUT4 translocation in L6 GLUT4myc myotubes. Cells were treated as previously described, cell surface GLUT4myc was detected by an enzyme-linked colorimetric assay. By the end of the treatment, L6- GLUT4myc cells were labeled with anti-c-myc antibody as described in Materials and Methods section. Results represent the means ± SEM of three independent experiments, and 3-4 cells were analyzed for each condition per experiment. *Indicates a significant (p ≤ 0.05) difference, **(p < 0.01) from the vehicle control group as assessed by ANOVA. […] L6 myotubes treated with CAME or CAEE (50 μM each), DMSO (0.1%) for 18 h. Insulin (100 nM) and AICAR (2 mM) both applied for 30 min and served as positive controls. Immunoblots were probed with anti phospho-AMPK (Thr 172), anti-GLUT4, anti-GLUT1 and anti-phospho-Akt (Ser 473) antibodies as described in Materials and Methods section. Anti-β-actin antibody was used as a loading control. Representative blots are shown in panel C. Data are expressed as (D) phospho-AMPK/β-actin, (E) GLUT4/β-actin and (F) GLUT1/β-actin and are given as mean ± SEM from 3 experiments. *p < 0.05 indicates a significant difference, **(p < 0.01) from the vehicle control group.
# GLUT4myc = test: Cell surface GLUT4myc (GLUT4 translocation), OPD assay; type: cell-based, rat; conditions: 50 μM, 18 h; L6-GLUT4myc
# Protocol: L6-GLUT4myc myotubes grown in 24-well plates were serum-starved for 4 h and were incubated with either CAME or CAEE (50 μM) for 18 h or insulin (100 nM) for 15 min. Cell-surface GLUT4myc levels were measured by an antibody-coupled colorimetric assay (Niu et al. [2003]) using O-phenylenediamine dihydrochloride (OPD) reagent (1 mL/well) (Sigma-Aldrich, St. Louis, MO), an anti-c-myc antibody (1:200 dilution; Santa Cruz Biotechnology, Santa Cruz, CA) and horseradish peroxidase (HRP)-conjugated goat anti-rabbit IgG at 4 °C (1:1000 dilution; Cell Signaling Technologies, Danvers, MA).
# as §3, with “Anti-β-actin antibody was used as a loading control. Representative blots are shown in panel C.” left out
SMILES,glucose uptake (C2C12 cells),"phospho-AMPK, fold increase over basal levels (AMPK)",protein level of PPAR-γ (PPAR-γ),effect on GLUT1 protein levels (GLUT1),Akt phosphorylation (Akt),protein level of C/EBP-β (C/EBP-β),"glucose uptake, percent of DMSO control (L6 GLUT4myc myotubes)",2-deoxyglucose uptake rate (L6 GLUT4myc myotubes),"GLUT4 translocation, fold relative to DMSO (GLUT4myc)"
"COC(=O)/C=C/c1ccc(O)c(O)c1 [CAME, CA methyl ester]",potently enhanced glucose uptake,2.4 fold,significantly reduced,no effect,did not modulate,significantly reduced,184 ± 16%,18.7 ± 0.8 pmol/min/mg protein,1.73 ± 0.18 fold and 1.79 ± 0.18 fold
"CCOC(=O)/C=C/c1ccc(O)c(O)c1 [CAEE, caffeic acid ethyl ester]",potently enhanced glucose uptake,2.3 fold,significantly reduced,no effect,did not modulate,significantly reduced,216 ± 19%,21.9 ± 1.0 pmol/min/mg protein,1.95 ± 0.30 fold
